Test results as given in the NIST ThermoML archive (doi:10.1016/j.jct.2013.01.012).

How the values were obtained:
[1] = refractive index (Na D-line) (dimensionless); mn = molality of the nth substance listed, in mol/kg; conditions: 101 kPa, Liquid, Standard Abbe refractometry
[2] = mn = molality of the nth substance listed, in mol/kg; conditions: 101 kPa, Liquid; for speed of sound: Sing-around technique in a fixed-path interferometer; for mass density: Vibrating tube method

O=P([O-])(O)O.[K+] [monopotassium phosphate] + O
Conditions	mass density, [2] [kg/m3]	refractive index, [1]	speed of sound, [2] [m/s]
298.15 K, m1 = 0.1	1007.01	1.3343	1506.5
298.15 K, m1 = 0.3	1026.44	1.3374	1524.5
298.15 K, m1 = 0.5	1046.68	1.3401	1542.1
298.15 K, m1 = 0.7	1066.58	1.3435	–
298.15 K, m1 = 0.9	1088.28	1.3466	1577.6
303.15 K, m1 = 0.1	1005.58	1.3336	1518.4
303.15 K, m1 = 0.3	1025.15	1.3368	1536
303.15 K, m1 = 0.5	1045.29	1.3397	1553.2
303.15 K, m1 = 0.7	1065.65	1.3427	1570.1
303.15 K, m1 = 0.9	1087.42	1.3463	1587.9
308.15 K, m1 = 0.1	1004.16	1.333	1528.8
308.15 K, m1 = 0.3	1023.58	1.3361	1545.8
308.15 K, m1 = 0.5	1044.55	1.3392	1563.1
308.15 K, m1 = 0.7	1065.08	1.3423	1580
308.15 K, m1 = 0.9	1086.5	1.3455	1596.6

O=P([O-])([O-])[O-].[Na+].[Na+].[Na+] [trisodium phosphate] + O
Conditions	mass density, 298.15 K [kg/m3]	mass density, 303.15 K [kg/m3]	mass density, 308.15 K [kg/m3]	refractive index, 298.15 K	refractive index, 303.15 K	refractive index, 308.15 K	speed of sound, 298.15 K [m/s]	speed of sound, 303.15 K [m/s]	speed of sound, 308.15 K [m/s]
[1], m1 = 0.1	–	–	–	1.3365	1.3358	1.3353	–	–	–
[1], m1 = 0.3	–	–	–	1.3439	1.3431	1.3425	–	–	–
[1], m1 = 0.5	–	–	–	1.3515	1.3506	1.35	–	–	–
[1], m1 = 0.7	–	–	–	1.3588	1.3581	1.3574	–	–	–
[1], m1 = 0.9	–	–	–	1.3664	1.3671	1.3653	–	–	–
[2], m1 = 0.1	1015.18	1013.87	1012.26	–	–	–	1519.7	1531.5	1541.8
[2], m1 = 0.3	1052.41	1051.09	1049.48	–	–	–	1563.1	1573.9	1583.5
[2], m1 = 0.5	1091.06	1090.82	1089.21	–	–	–	1608.9	1619.9	1628.3
[2], m1 = 0.7	1130.08	1129.51	1131.08	–	–	–	1658.1	1667.3	1677.7
[2], m1 = 0.9	1173.67	1169.99	1167.45	–	–	–	1716.9	1722.6	1727.6

O=P([O-])(O)O.[Na+] [sodium dihydrogen phosphate] + O
Conditions	mass density, 298.15 K [kg/m3]	mass density, 303.15 K [kg/m3]	mass density, 308.15 K [kg/m3]	refractive index, 298.15 K	refractive index, 303.15 K	refractive index, 308.15 K	speed of sound, 298.15 K [m/s]	speed of sound, 303.15 K [m/s]	speed of sound, 308.15 K [m/s]
[1], m1 = 0.1	–	–	–	1.3346	1.334	1.3335	–	–	–
[1], m1 = 0.3	–	–	–	1.3381	1.3376	1.3371	–	–	–
[1], m1 = 0.5	–	–	–	1.3408	1.3412	1.3398	–	–	–
[1], m1 = 0.7	–	–	–	1.344	1.3435	1.3428	–	–	–
[1], m1 = 0.9	–	–	–	1.3492	1.3473	1.3466	–	–	–
[2], m1 = 0.1	1006.23	1005.17	1004.2	–	–	–	1507.1	1519.2	1529.8
[2], m1 = 0.3	1024.26	1022.91	1021.13	–	–	–	1527.2	1538.5	1548.1
[2], m1 = 0.5	1043.03	1041.67	1039.97	–	–	–	1547.3	1558.2	1567.3
[2], m1 = 0.7	1062.08	1060.86	1060.09	–	–	–	1567.7	1577.8	1587.9
[2], m1 = 0.9	1081.28	1079.48	1080.28	–	–	–	1587.8	1579.2	1608.1

O=P([O-])([O-])[O-].[K+].[K+].[K+] [tripotassium phosphate] + O
Conditions	mass density, 298.15 K [kg/m3]	mass density, 303.15 K [kg/m3]	mass density, 308.15 K [kg/m3]	refractive index, 298.15 K	refractive index, 303.15 K	refractive index, 308.15 K	speed of sound, 298.15 K [m/s]	speed of sound, 303.15 K [m/s]	speed of sound, 308.15 K [m/s]
[1], m1 = 0.1	–	–	–	1.3365	1.3357	1.3351	–	–	–
[1], m1 = 0.3	–	–	–	1.344	1.3435	1.3426	–	–	–
[1], m1 = 0.5	–	–	–	1.3517	1.351	1.3502	–	–	–
[1], m1 = 0.7	–	–	–	1.3595	1.3588	1.3581	–	–	–
[1], m1 = 0.9	–	–	–	1.3671	1.3667	1.3659	–	–	–
[2], m1 = 0.1	1017.14	1015.62	1013.92	–	–	–	1518.2	1529.8	1539.7
[2], m1 = 0.3	1057.82	1056.83	1054.87	–	–	–	1559.7	1570.2	1578.9
[2], m1 = 0.5	1101.23	1100.46	1098.72	–	–	–	1603	1616.1	1622.8
[2], m1 = 0.7	1145.91	1145.57	1144.26	–	–	–	1658.8	1666.7	1671.9
[2], m1 = 0.9	1191.53	1191.62	1190.09	–	–	–	1716.6	1723.7	1725.1
